Several values for one entry are separate records, joined by “and”; a condition that tells them apart may be missing. Equal values may be shown once. Where a name gives a salt, the structure may show the parent alone. Read-outs that look alike come from different tables or passages of the source.

For assay [1], the system named is erythroid progenitor cells (EPCs). In words: Fetal hemoglobin (HbF) ELISA in day 7 erythroid progenitor cells.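 Note: for fetal hemoglobin induction normalized to vehicle-treated cells.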 The class given is cell-based, human. The conditions noted are these: Homo sapiens, Erythroid progenitor cell, HbF ELISA, day 7 EPCs, 5 days; read-out: EPC ELISA (pEC50 category) (converted). In short, it runs like this: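 Day 7 EPCs from human bone marrow CD34+ cells were plated at 1,000 cells/well in media with 3 U/mL rhEPO. They were exposed to a 22-point dilution ([…]) for 5 days at 37 °C. Lysate HbF was measured by sandwich ELISA (OD450) and normalized to DMSO control wells.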
Background: ELISA stands for enzyme-linked immunosorbent assay.

In another assay the target is DNMT1 (Homo sapiens, UniProt P26358). Nature of the assay: DNMT1 biochemical activity, breaklight assay and/or SPA assay.
Chain of DNMT1 (P26358 whole entry, looked up): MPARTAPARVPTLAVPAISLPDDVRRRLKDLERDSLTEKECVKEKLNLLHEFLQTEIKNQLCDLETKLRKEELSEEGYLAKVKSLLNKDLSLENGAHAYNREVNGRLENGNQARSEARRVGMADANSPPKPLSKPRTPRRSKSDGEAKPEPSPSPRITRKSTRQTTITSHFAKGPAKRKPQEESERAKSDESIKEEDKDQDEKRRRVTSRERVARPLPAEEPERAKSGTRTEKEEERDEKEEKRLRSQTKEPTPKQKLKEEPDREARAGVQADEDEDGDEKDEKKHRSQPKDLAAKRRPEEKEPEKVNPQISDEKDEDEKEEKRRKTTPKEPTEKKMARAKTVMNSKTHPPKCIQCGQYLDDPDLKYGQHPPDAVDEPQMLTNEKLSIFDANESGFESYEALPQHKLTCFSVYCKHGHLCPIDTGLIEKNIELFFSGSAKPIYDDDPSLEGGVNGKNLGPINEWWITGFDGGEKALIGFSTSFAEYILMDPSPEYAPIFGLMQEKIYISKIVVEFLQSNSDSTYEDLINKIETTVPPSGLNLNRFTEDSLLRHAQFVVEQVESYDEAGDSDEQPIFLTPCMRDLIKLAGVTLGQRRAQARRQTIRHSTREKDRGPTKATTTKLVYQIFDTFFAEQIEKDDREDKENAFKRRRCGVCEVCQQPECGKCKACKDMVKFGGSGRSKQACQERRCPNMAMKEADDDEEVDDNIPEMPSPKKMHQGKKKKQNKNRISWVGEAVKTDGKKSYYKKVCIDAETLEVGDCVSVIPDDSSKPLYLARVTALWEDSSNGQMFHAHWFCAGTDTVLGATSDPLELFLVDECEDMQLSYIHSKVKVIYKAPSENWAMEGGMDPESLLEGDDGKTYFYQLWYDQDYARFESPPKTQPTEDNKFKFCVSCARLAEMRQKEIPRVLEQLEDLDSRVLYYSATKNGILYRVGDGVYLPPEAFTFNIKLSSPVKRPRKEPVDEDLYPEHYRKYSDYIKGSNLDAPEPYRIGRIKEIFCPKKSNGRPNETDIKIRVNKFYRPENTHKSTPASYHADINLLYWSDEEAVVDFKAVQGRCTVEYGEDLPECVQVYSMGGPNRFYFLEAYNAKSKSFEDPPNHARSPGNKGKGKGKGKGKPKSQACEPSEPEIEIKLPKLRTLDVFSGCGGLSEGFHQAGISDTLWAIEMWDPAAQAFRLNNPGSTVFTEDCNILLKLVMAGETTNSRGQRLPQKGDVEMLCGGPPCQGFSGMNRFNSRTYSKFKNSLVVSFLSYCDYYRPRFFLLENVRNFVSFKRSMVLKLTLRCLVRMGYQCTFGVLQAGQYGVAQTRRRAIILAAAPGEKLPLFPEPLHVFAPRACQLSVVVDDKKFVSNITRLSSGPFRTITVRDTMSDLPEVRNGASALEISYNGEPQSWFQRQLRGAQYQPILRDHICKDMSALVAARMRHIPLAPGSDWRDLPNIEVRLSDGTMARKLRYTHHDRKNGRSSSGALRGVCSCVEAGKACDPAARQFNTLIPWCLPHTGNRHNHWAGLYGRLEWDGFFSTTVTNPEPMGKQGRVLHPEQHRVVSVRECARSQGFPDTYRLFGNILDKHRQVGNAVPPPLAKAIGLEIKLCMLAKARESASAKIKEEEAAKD
Setting [2] is: binned activity in either the breaklight or the SPA assay.
[3] abbreviates: binned activity in either the breaklight or the SPA assay, read-out: DNMT1 BioChemical (pIC50 category) (converted).

For `CCc1c(C#N)c(SCc2ccc(CNC(=O)CN)cc2)nc(N(C)CCN(CC)CC)c1C#N` [Example 520, 2-amino-N-(4-(((3,5-dicyano-6-((2-(diethylamino)ethyl)(methyl)amino)-4-ethylpyridin-2-yl)thio)methyl)benzyl)acetamide], the EC50 in assay [1] is below 316 nM. Also, the “DNMT1 BioChemical (pIC50 category)” value on DNMT1 (setting [2]) is “D (Category D: ≥6.5)”.
The corresponding values for `CCc1c(C#N)c(SC(C(N)=O)c2ccc(F)cc2)nc(N2CCC(N)CC2)c1C#N` (stereo not drawn) [Example 522, 2-((6-(4-aminopiperidin-1-yl)-3,5-dicyano-4-ethylpyridin-2-yl)thio)-2-(4-fluorophenyl)acetamide hydrochloride] are below 316 nM and “D (Category D: ≥6.5)”.
For `CCNCCN(C)c1nc(SC(C(N)=O)c2ccccc2)c(C#N)c(CC)c1C#N` (stereo not drawn) [Example 468, 2-(3,5-dicyano-4-ethyl-6-((2-(ethylamino)ethyl)(methyl)amino)pyridin-2-ylthio)-2-phenylacetamide] the same measures were below 316 nM and “D (Category D: ≥6.5)”.
For `CCc1c(C#N)c(SC(C(N)=O)c2ccccc2)nc(N2CC(OC(=O)C(N)C(C)C)C2)c1C#N` (stereo in doubt) [Example 333, (2R)-1-(6-((2-Amino-2-oxo-1-phenylethyl)thio)-3,5-dicyano-4-ethylpyridin-2-yl)azetidin-3-yl 2-amino-3-methylbutanoate] the same measures were 1000 to 31600 nM and “D (Category D: ≥6.5)”.
As for `CCc1c(C#N)c(SC(C(N)=O)c2ccccc2)nc(N2CCC3(CCCNC3)CC2)c1C#N` (stereo not drawn) [Example 116, 2-((3,5-Dicyano-4-ethyl-6-(2,9-diazaspiro[5.5]undecan-9-yl)pyridin-2-yl)thio)-2-phenylacetamide], the EC50 in assay [1] was below 316 nM. At DNMT1 (setting [2]), the “DNMT1 BioChemical (pIC50 category)” value is “D (Category D: ≥6.5)”.
`CCc1c(C#N)c(SC(C(N)=O)c2cccc(C(F)(F)F)c2)nc(N2CCCN(C)CC2)c1C#N` (stereo not drawn) [Example 223, 2-((3,5-Dicyano-4-ethyl-6-(4-methyl-1,4-diazepan-1-yl)pyridin-2-yl)thio)-2-(3-(trifluoromethyl)phenyl)acetamide]: the EC50 in assay [1] is 1000 to 31600 nM. Moreover, the IC50 on DNMT1 (setting [3]) was 316 to 1000 nM.
With `CCc1c(C#N)c(SCc2ccc(CNC(C)=O)cc2)nc(N(C)CCOC(=O)[C@@H](N)C(C)C)c1C#N` [Example 267], the EC50 in assay [1] is 1000 to 31600 nM. Moreover, on DNMT1 (setting [3]), the IC50 is 1000 to 31600 nM.
In the case of `CCc1c(C#N)c(SCc2ccc(N)cc2)nc(N2CCCN(C)CC2)c1C#N` [Example 297, 2-((4-Aminobenzyl)thio)-4-ethyl-6-(4-methyl-1,4-diazepan-1-yl)pyridine-3,5-dicarbonitrile], the EC50 in assay [1] was above 31600 nM. For the same compound, the IC50 on DNMT1 (setting [3]) is 316 to 1000 nM.
On to `CN(CCN)c1nc(SC(C(N)=O)c2ccccc2)c(C#N)c(C2CC2)c1C#N` (stereo not drawn) [Example 373, 2-((6-((2-Aminoethyl)(methyl)amino)-3,5-dicyano-4-cyclopropylpyridin-2-yl)thio)-2-phenylacetamide, Hydrochloride], for which the EC50 in assay [1] was 316 to 1000 nM. Further, the “DNMT1 BioChemical (pIC50 category)” value at DNMT1 (setting [2]) is “D (Category D: ≥6.5)”.
On to `CCc1c(C#N)c(SC(C(N)=O)c2ccccc2)nc(N2CCc3[nH]nnc3C2)c1C#N` (stereo not drawn) [Example 359, 2-((3,5-Dicyano-6-(6,7-dihydro-1H-[1,2,3]triazolo[4,5-c]pyridin-5(4H)-yl)-4-ethylpyridin-2-yl)thio)-2-phenylacetamide], for which the EC50 in assay [1] was 1000 to 31600 nM. Also, the IC50 on DNMT1 (setting [3]) is 316 to 1000 nM.
Consider `CCc1c(C#N)c(S[C@@H](C(N)=O)c2ccccc2)nc(N2CCO[C@H](CN)C2)c1C#N` [Example 561, (R)-2-((6-((R)-2-(aminomethyl)morpholino)-3,5-dicyano-4-ethylpyridin-2-yl)thio)-2-phenylacetamide, Hydrochloride], for which, in assay [1], the EC50 is below 316 nM. Besides, the “DNMT1 BioChemical (pIC50 category)” value on DNMT1 (setting [2]) is recorded as “D (Category D: ≥6.5)”.
Consider `CCc1c(C#N)c(SC(C(N)=O)c2ccccc2)nc(N(C)Cc2cnc[nH]2)c1C#N` (stereo not drawn) [Example 365], for which the EC50 in assay [1] is 1000 to 31600 nM. Also, the IC50 at DNMT1 (setting [3]) is 316 to 1000 nM.
Consider `CCc1c(C#N)c(SC(C(N)=O)c2ccccc2)nc(N2CCC(OCCO)CC2)c1C#N` (stereo not drawn) [Example 224, 2-((3,5-Dicyano-4-ethyl-6-(4-(2-hydroxyethoxy)piperidin-1-yl)pyridin-2-yl)thio)-2-phenylacetamide], for which, in assay [1], the EC50 is 316 to 1000 nM. Also, the IC50 on DNMT1 (setting [3]) is 316 to 1000 nM.
As to `CCc1c(C#N)c(SC(C(N)=O)c2ccccc2)nc(N2CCC(NC(=O)OC(C)(C)C)CC2)c1C#N` (stereo not drawn) [Example 328, tert-Butyl (1-(6-((2-amino-2-oxo-1-phenylethyl)thio)-3,5-dicyano-4-ethylpyridin-2-yl)piperidin-4-yl)carbamate], the EC50 in assay [1] is 316 to 1000 nM. Further, the IC50 on DNMT1 (setting [3]) is 1000 to 31600 nM.
On to `CCc1c(C#N)c(SC(C(N)=O)c2ccccc2)nc(N2CCC(OCCOP(=O)(O)O)CC2)c1C#N` (stereo not drawn) [Example 154, 2-((1-(6-((2-Amino-2-oxo-1-phenylethyl)thio)-3,5-dicyano-4-ethylpyridin-2-yl)piperidin-4-epoxy)ethyldihydrogen phosphate], for which the EC50 in assay [1] is 1000 to 31600 nM. The IC50 at DNMT1 (setting [3]) was 1000 to 31600 nM.
With `CCc1c(C#N)c(SCc2ccc(N)c(F)c2)nc(N2CCCN(C)CC2)c1C#N` [Example 360, 2-((4-Amino-3-fluorobenzyl)thio)-4-ethyl-6-(4-methyl-1,4-diazepan-1-yl)pyridine-3,5-dicarbonitrile], in assay [1], the EC50 is 1000 to 31600 nM. The IC50 at DNMT1 (setting [3]) is 316 to 1000 nM.
The corresponding values for `CCc1c(C#N)c(SCc2ccc(-c3ccccn3)cc2)nc(N2CCC(N3CCCC3)CC2)c1C#N` [Example 350, 4-Ethyl-2-((4-(pyridin-2-yl)benzyl)thio)-6-(4-(pyrrolidin-1-yl)piperidin-1-yl)pyridine-3,5-dicarbonitrile] are above 31600 nM and 316 to 1000 nM.
For the compound `CCc1c(C#N)c(SCc2ccc(N(C)S(C)(=O)=O)cc2)nc(N2CCC(N)CC2)c1C#N` [Example 587, N-(4-(((6-(4-aminopiperidin-1-yl)-3,5-dicyano-4-ethylpyridin-2-yl)thio)methyl)phenyl)-N-methylmethanesulfonamide], the EC50 in assay [1] was below 316 nM. The “DNMT1 BioChemical (pIC50 category)” value at DNMT1 (setting [2]) was “D (Category D: ≥6.5)”.
As for `CCc1c(C#N)c(SC(C(N)=O)c2ccccc2)nc(N2CCC(NC3CC3)C(F)C2)c1C#N` (stereo not drawn) [Example 527, 2-((3,5-dicyano-6-(4-(cyclopropylamino)-3-fluoropiperidin-1-yl)-4-ethylpyridin-2-yl)thio)-2-phenylacetamide], the EC50 in assay [1] was below 316 nM. For the same compound, the “DNMT1 BioChemical (pIC50 category)” value at DNMT1 (setting [2]) was “D (Category D: ≥6.5)”.
The corresponding values for `CCc1c(C#N)c(SC(C(N)=O)c2ccccc2)nc(N2CCC(NCc3ccccc3)CC2)c1C#N` (stereo not drawn) [Example 455, 2-(6-(4-(benzylamino)piperidin-1-yl)-3,5-dicyano-4-ethylpyridin-2-ylthio)-2-phenylacetamide] are below 316 nM and “D (Category D: ≥6.5)”.
As to `CCc1c(Cl)c(SC(C(N)=O)c2ccccc2)nc(N2CCCN(C)CC2)c1Cl` (stereo not drawn) [Example 165], the EC50 in assay [1] is above 31600 nM. In addition, the IC50 was 316 to 1000 nM at DNMT1 (setting [3]); 316 to 1000 nM and 631 nM at DNMT1 (breaklight assay and/or SPA assay, repeated experimental runs, read-out: average pIC50 against DNMT1 (converted)).
Regarding `CCc1c(C#N)c(SCc2ccc(NC(C)=O)c(F)c2)nc(N2CCCN(C)CC2)c1C#N` [Example 362], the EC50 in assay [1] is above 31600 nM. Besides, the IC50 at DNMT1 (setting [3]) was 316 to 1000 nM.
`CCc1c(C#N)c(SC(C(N)=O)c2ccc(F)cc2)nc(N2CCC(NCC(C)(C)C)CC2)c1C#N` (stereo not drawn) [Example 408, 2-((3,5-Dicyano-4-ethyl-6-(4-(neopentylamino)piperidin-1-yl)pyridin-2-yl)thio)-2-(4-fluorophenyl)acetamide]: in assay [1], the EC50 was below 316 nM. Further, the “DNMT1 BioChemical (pIC50 category)” value at DNMT1 (setting [2]) is given as “D (Category D: ≥6.5)”.
Regarding `CCc1c(C#N)c(SCc2ccc(B(O)O)cc2)nc(N2CCCN(C)CC2)c1C#N` [Example 357, 4-((3,5-Dicyano-4-ethyl-6-(4-methyl-1,4-diazepan-1-yl)pyridin-2-ylthio)methyl)phenylboronic acid], in assay [1], the EC50 is above 31600 nM. For the same compound, the IC50 at DNMT1 (setting [3]) was 316 to 1000 nM.
For the compound `CCCOc1c(C#N)c(SC(C(N)=O)c2ccccc2)nc(N2CCCN(CCO)CC2)c1C#N` (stereo not drawn) [Example 213, 2-((3,5-Dicyano-6-(4-(2-hydroxyethyl)-1,4-diazepan-1-yl)-4-propoxypyridin-2-yl)thio)-2-phenylacetamide], the EC50 in assay [1] was 1000 to 31600 nM. For the same compound, the IC50 at DNMT1 (setting [3]) is 316 to 1000 nM.
For the compound `CCc1c(C#N)c(SC(C(N)=O)c2ccccc2)nc(N2CC[C@@H](N)C2)c1C#N` (stereo partly drawn) [Example 524, 2-((6-((R)-3-aminopyrrolidin-1-yl)-3,5-dicyano-4-ethylpyridin-2-yl)thio)-2-phenylacetamide], the EC50 in assay [1] was below 316 nM. Also, the “DNMT1 BioChemical (pIC50 category)” value on DNMT1 (setting [2]) is “D (Category D: ≥6.5)”.
Turning to `CCc1c(C#N)c(SCc2csc(NC(C)=O)n2)nc(N2CCCN(C)CC2)c1C#N` [Example 75, N-(4-(((3,5-Dicyano-4-ethyl-6-(4-methyl-1,4-diazepan-1-yl)pyridin-2-yl)thio)methyl)thiazol-2-yl)acetamide], the EC50 in assay [1] was above 31600 nM. For the same compound, at DNMT1 (setting [3]), the IC50 was 316 to 1000 nM.
In the case of `CCc1c(C#N)c(SCc2ccc(N(C)S(=O)(=O)CF)cc2)nc(N2CCCN(C)CC2)c1C#N` [Example 595, N-(4-(((3,5-dicyano-4-ethyl-6-(4-methyl-1,4-diazepan-1-yl)pyridin-2-yl)thio)methyl)phenyl)-1-fluoro-N-methylmethanesulfonamide], the EC50 in assay [1] is below 316 nM. The “DNMT1 BioChemical (pIC50 category)” value at DNMT1 (setting [2]) is “D (Category D: ≥6.5)”.

Values taken from patent US10975056B2 (GlaxoSmithKline Intellectual Property Development Limited, priority 2016, dated 2021).
